From ChEMBL document CHEMBL1201862, “PubChem BioAssay data set” (2004)
Activity calls are given as the source filed them.

How the values were obtained:
[1] = molecular target: T1, fMet-Leu-Phe receptor (Homo sapiens, UniProt P21462); assay: formyl peptide receptor binders – dose response (AID 519); assay type: functional
T1 sequence (P21462 whole entry): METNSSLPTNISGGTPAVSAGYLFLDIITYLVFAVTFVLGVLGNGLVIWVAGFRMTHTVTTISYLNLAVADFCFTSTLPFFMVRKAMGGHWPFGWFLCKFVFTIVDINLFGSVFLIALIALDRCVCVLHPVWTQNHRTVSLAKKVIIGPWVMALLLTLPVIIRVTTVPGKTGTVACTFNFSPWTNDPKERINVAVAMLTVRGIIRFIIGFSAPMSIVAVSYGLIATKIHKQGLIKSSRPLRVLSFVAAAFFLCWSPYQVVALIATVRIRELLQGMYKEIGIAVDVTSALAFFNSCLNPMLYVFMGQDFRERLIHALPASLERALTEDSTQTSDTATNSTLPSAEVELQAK

[2] = cells; assay type: functional, cell-based
[3] = molecular target: T2, Nuclear receptor subfamily 0 group B member 1 (Homo sapiens, UniProt P51843); assay type: functional, cell-based;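 also: HEK293T cells transfected with SF-1 and DAX-1 plus StAR promoter luciferase reporter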
T2 sequence (P51843 whole entry): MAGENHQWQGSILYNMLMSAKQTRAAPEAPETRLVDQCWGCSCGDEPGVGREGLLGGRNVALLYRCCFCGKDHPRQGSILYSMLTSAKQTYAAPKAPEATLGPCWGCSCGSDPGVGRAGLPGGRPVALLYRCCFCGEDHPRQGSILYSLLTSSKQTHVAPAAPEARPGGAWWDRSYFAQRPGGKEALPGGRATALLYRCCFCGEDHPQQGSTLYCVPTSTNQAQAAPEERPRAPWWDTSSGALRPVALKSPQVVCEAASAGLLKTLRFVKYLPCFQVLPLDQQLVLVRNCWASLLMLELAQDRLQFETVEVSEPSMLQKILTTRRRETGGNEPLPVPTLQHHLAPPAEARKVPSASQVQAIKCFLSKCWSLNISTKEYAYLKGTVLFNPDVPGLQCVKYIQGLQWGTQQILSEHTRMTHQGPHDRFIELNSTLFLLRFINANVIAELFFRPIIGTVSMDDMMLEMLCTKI

[4] = molecular target: T3, DNA repair protein RAD52 homolog (Homo sapiens, UniProt P43351); assay type: functional, biochemical
T3 sequence (P43351 whole entry): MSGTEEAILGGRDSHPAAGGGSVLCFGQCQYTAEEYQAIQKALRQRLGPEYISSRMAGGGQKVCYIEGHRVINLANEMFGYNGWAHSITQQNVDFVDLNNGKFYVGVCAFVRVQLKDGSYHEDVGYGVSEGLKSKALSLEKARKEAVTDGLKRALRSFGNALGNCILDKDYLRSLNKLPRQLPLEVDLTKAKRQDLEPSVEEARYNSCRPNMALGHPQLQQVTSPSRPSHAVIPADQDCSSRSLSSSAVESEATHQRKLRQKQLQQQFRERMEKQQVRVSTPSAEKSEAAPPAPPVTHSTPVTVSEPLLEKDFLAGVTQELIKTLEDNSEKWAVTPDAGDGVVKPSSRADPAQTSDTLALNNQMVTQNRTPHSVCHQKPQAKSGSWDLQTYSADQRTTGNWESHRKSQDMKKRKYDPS

[5] = Luminescence Cell-Based Dose Confirmation HTS to Identify Inhibitors of Platelet Dense Granule Release. [Related pubchem assays: 1663 (Primary HTS), 1678 (Summary of Project)]; assay type: functional
[6] = molecular target: Luciferin 4-monooxygenase (Photinus pyralis, UniProt P08659); assay: inhibition of purified Photinus pyralis luciferase – biochemical, luminescence, dose response (AID 1891)
[7] = cells
[8] = molecular target: Major prion protein (Homo sapiens, UniProt P04156); assay type: functional, cell-based
[9] = molecular target: NAD-dependent protein deacylase sirtuin-5, mitochondrial (Homo sapiens, UniProt Q9NXA8); assay: sirtuin-5 deacylation blockers, concentration series – biochemical, fluorescence imaging, cherry-pick, set 5, dose response (AID 720591);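 also: desuccinylation of succinyl peptide AMC substrate read as fluorescence after trypsin release; potency of inhibitors that lower fluorescence and may act on trypsin instead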
[10] = molecular target: Cytochrome P450 3A4 (Homo sapiens, UniProt P08684);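 also: CYP3A4 tested as one member of a cytochrome P450 panel screen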
[11] = molecular target: Cytochrome P450 2C19 (Homo sapiens, UniProt P33261); assay: Cytochrome panel assay with activity outcomes. Panel member name: p450-cyp2c19 Compounds with AC50 equal or less than 10 uM are considered active; assay type: functional; details: read-out: AC50
[12] = molecular target: T4, Beta-lactamase (Pseudomonas aeruginosa, UniProt Q79MP6); assay: inhibition of IMP-1 beta-lactamase activity – biochemical, epi-absorbance, selectivity assay for VIM-2 inhibitor project, dose response (AID 1920)
[13] = molecular target: T4, Beta-lactamase; assay: […] counterscreen for selective VIM-2 inhibitors: dose response biochemical high throughput screening assay to identify inhibitors of IMP-1 metallo-beta-lactamase.
[14] = molecular target: Beta-lactamase (Salmonella choleraesuis (strain SC-B67), UniProt Q5J463); assay: Epi-absorbance-based counterscreen for selective VIM-2 inhibitors: dose response biochemical high throughput screening assay to identify inhibitors of TEM-1 serine-beta-lactamase.
[15] = molecular target: T5, Cytochrome P450 1A2 (Homo sapiens, UniProt P05177);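 also: PubChem cytochrome P450 panel assay, CYP1A2 panel member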
T5 sequence (P05177 whole entry): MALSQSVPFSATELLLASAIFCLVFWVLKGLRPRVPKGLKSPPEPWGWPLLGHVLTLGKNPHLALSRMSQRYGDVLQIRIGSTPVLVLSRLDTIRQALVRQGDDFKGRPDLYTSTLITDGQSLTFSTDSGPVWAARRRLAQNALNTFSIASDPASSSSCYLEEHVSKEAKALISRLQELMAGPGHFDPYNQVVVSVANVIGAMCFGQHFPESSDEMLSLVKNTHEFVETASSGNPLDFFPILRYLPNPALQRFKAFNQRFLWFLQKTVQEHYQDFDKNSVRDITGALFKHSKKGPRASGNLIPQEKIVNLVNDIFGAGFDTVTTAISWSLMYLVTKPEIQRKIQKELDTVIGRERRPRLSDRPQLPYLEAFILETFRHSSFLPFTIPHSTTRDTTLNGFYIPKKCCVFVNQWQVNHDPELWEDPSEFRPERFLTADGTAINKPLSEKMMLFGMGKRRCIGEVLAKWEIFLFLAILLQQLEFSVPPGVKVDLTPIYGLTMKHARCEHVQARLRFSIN

C=CCN1C(=O)C2(C(C(=O)c3ccc4c(c3)OCCO4)=C(O)C(=O)N2CCCOC)c2ccccc21 (centres undefined)
Ki [1]: > 66.7 µM (inactive)

Cc1cccc(NC(=O)c2ccc3c(=O)n4c(nc3c2)CCCCC4)n1
IC50 [2]: > 67.5 µM (inactive) | IC50 [3]: > 0.834 µM (active)

CN1Cc2c(N3CCOCC3)nc3sc(C(=O)c4ccccc4)c(N)c3c2CC1(C)C
AC50 [4]: 32.1 µM (active)

COC(=O)CSc1nc(COc2ccccc2)nc2ccccc12
EC50 [5]: > 112 µM (not active) | EC50 [6]: > 112 µM (not active) | IC50 [7]: > 138 µM (inactive) | IC50 [8]: 8.48 µM (active)

C/C(NCc1cccnc1)=C1/C(=O)NC(=O)N(c2ccc(C)cc2)C1=O
IC50 [7]: > 138 µM (inactive) | IC50 [8]: 10.2 µM (inactive)

OC(CNCc1ccccc1)COc1ccccc1 (centres undefined)
AC50 [9]: > 30 µM (inactive)

CC(C)(C)C(=O)Nc1nnc(SCC(=O)NCc2cccs2)s1
AC50 [10]: 25.1 µM (inconclusive) | AC50 [11]: 3.16 µM (inconclusive) | IC50 [12]: > 59.6 µM (inactive) | IC50 [13]: > 59.6 µM (inactive) | IC50 [14]: > 59.6 µM (inactive) | AC50 [15]: 22.4 µM (inconclusive)

CN(C)CCCN=c1cc(-c2ccccc2)oc2ccc(Cl)cc12
AC50 [4]: 4.38 µM (active)

Cc1ccsc1C1C2=C(O)CC(C)(C)CC2=Nc2ncnn21 (centres undefined)
Ki [1]: 12.5 µM (active)
